Source: patent publication US10647745B2, “Compound for treating sequelae of ischemic cerebral stroke” (priority 2015, dated 2020)
Residues, ends and D or L forms follow the SMILES beside them.

Legend:
[1] = system: right cerebral artery ischemia/reperfusion model in rats; assay: Neurologic deficit score in rat 1.5-hour ischemia/reperfusion model; format: in vivo, Sprague-Dawley (SD) rats; details: 3.6 mg/kg i.p. once a day, vs model group without compound
Procedure: (§1) Sprague-Dawley (SD) rats, male, weighing 280-320 g, clean, feeding, conditions: room temperature of 20-25° C., humidity of 30-60%, well ventilated, ad libitum diet; the animals were acclimatized in the feeding environment for three days prior to the experiment.
(§2) The rats were anesthetized with 4% chloral hydrate (350 mg/kg, ip.) and then were fixed in a supine position. A midline ventral neck incision was made, the right common carotid artery was separated and snared with two sutures for further use. Then, the internal carotid artery and external carotid artery were separated, and the external carotid artery was ligatured. The separated common carotid artery was ligatured at its proximal end with a thread, and the blood flow of the same was blocked at its distal end with a bulldog clamp. A small opening was cut therebetween and a nylon suture (4-0) which is heated at one end into a bead-like shape (having a diameter of <0.3 mm) was inserted into the small opening. […]
Neurologic deficit scores were assessed for the above experimental animals according to the following procedure before the beginning of experiment and 24 hours, 1 day, 3 days, 7 days, 14 days, 28 days, 56 days, and 112 days after the beginning of experiment; Score rules: see Zea Longer score and NSS score, full score of 10; […]

[2] = Body weight of rats in 1.5-hour ischemia/reperfusion model; format: in vivo, Sprague-Dawley (SD) rats; details: 3.6 mg/kg i.p. once a day
Procedure: as §1
as §2, with “opening. The bulldog clamp was removed, and the nylon suture was gently advanced to the origin of the anterior cerebral artery (18-20 mm), thereby causing arterial ischemia in brain by blocking the blood supply of the cerebral artery. The skin was sutured and was sterilized with tincture of iodine.” for “opening.”

CC(C)CC(NC(=O)C(CCC(N)=O)NC(=O)C(NC(=O)C(CO)NC(=O)C(Cc1c[nH]cn1)NC(=O)C(N)C(C)C)C(C)C)C(=O)NC(Cc1ccc(O)cc1)C(=O)O (stereo not shown) [compound of formula (III)] (H-VHSVQLY-OH; configuration not given here)
neuroethology score (neurologic deficit score) ([1]; I1.5R+1 week+dosing for 4 weeks, statistically significant in 2nd, 3rd, 4th, 5th and 7th week after operation): gradually declined neuroethology score
neurological scores ([1]; I1.5R+2 weeks+dosing for 4 weeks, statistically significant at fifth week after operation): declined from the beginning of the administration
weight ([2]; I1.5R+1 week+dosing for 4 weeks, vs model group without compound): gradually increased weight
weight ([2]; I1.5R+2 weeks+dosing for 4 weeks, vs model group, weight data said not demonstrative (groups differed before dosing)): gradually increased weight
